Test results: article PMC8405091, “Microwave-assisted Phospha-Michael addition reactions in the 13α-oestrone series and in vitro antiproliferative properties” (Journal of Enzyme Inhibition and Medicinal Chemistry, 2021)

How the values were obtained:
Assay type in all cases: cell-based, human
UPCI-SCC-154 cells = experiment: MTT antiproliferative assay, UPCI-SCC-154; settings: 72 h, 72 h; for inhibition at 10 µM / inhibition at 30 µM: Homo sapiens, read-out: Growth inhibition, % ± SEM
Description: (§1) The antiproliferative properties of the newly synthesized compounds (9–20) and their starting materials (4 and 5) were determined on a panel of human adherent cancer cell lines. MCF-7, MDA-MB-231 and T47D were isolated from breast cancers differing in biochemical background, while A2780 cells were isolated from ovarian cancer. HeLa and SiHa are cervical cancer cell lines positive for HPV-18 and HPV-16, respectively, while C33-A cervical cancer cells are negative for HPV. Moreover, two oropharyngeal cancer cell lines were also utilized: the HPV-negative UPCI-SCC-131 and HPV-16 positive UPCI-SCC-154. The cancer selectivity of compounds was tested on the non-cancerous mouse embryo fibroblast cell line NIH/3T3. All cell lines were purchased from European Collection of Cell Cultures (ECCAC, Salisbury, UK) exception for SiHa and C33-A (American Tissue Culture Collection, Manassas, VA, USA) and HN-SCC-131 and UPCI-SCC-154 (German Collection of Microorganisms and Cell Cultures GmbH, Braunschweig, Germany). Cells were cultivated in minimal essential medium supplemented with 10% fetal bovine serum, 1% non-essential amino acids and an antibiotic–antimycotic mixture. The medium of oropharyngeal cancer cells additionally contained 2.0 mM L-glutamine. All media and supplements were obtained from Lonza Group Ltd., Basel, Switzerland. Near-confluent cancer cells were seeded onto a 96-well microplate at a density of 5,000 cells/well, except for C33-A which were seeded at 10,000/well. After overnight standing, new medium containing the tested compounds at 10 and 30 µM final concentration was added. After incubation for 72 h at 37 °C in humidified air containing 5% CO2, the living cells were assayed by the addition of 20 μL of 5 mg/ml 3-(4,5-dimethylthiazol-2-yl)-2,5-diphenyltetrazolium bromide (MTT) solution. MTT was converted by intact mitochondrial reductase and precipitated as purple crystals during a 4-h contact period. The medium was next removed and the precipitated formazan crystals were dissolved in 100 μL of DMSO during a 60-min period of shaking at 37 ^оC.
(§2) All in vitro experiments were carried out twice with five parallels. Stock solutions of the tested substances (10 mM) were prepared in DMSO. […] Cisplatin (Ebewe Pharma GmbH, Unterach, Austria) was used as positive control.

MDA-MB-231 cells = experiment: MTT antiproliferative assay, MDA-MB-231; settings: for inhibition at 10 µM / inhibition at 30 µM: Homo sapiens, MDA-MB-231, 72 h, read-out: Growth inhibition, % ± SEM; for Growth inhibition; % ± SEM: 72 h
Description: as §1, §2

C33-A cells = experiment: MTT antiproliferative assay, C33-A; settings: 72 h; for inhibition at 10 µM / inhibition at 30 µM: Homo sapiens, C-33-A; for inhibition at 10 µM: read-out: Growth inhibition, % ± SEM, C33-A, 10 μM; for inhibition at 30 µM: read-out: Growth inhibition, % ± SEM, C33-A, 30 μM; for Growth inhibition; % ± SEM: C33-A
Description: as §1, §2

T47D cells = experiment: MTT antiproliferative assay, T47D; settings: 72 h; for inhibition at 10 µM / inhibition at 30 µM: Homo sapiens; for inhibition at 10 µM: read-out: Growth inhibition, % ± SEM, 10 μM; for inhibition at 30 µM: read-out: Growth inhibition, % ± SEM, 30 μM
Description: as §1, §2

MCF-7 cells = experiment: MTT antiproliferative assay, MCF-7; settings: 72 h; for inhibition at 10 µM / inhibition at 30 µM: Homo sapiens, MCF7, 72 h, read-out: Growth inhibition, % ± SEM
Description: as §1, §2

A2780 cells = experiment: MTT antiproliferative assay, A2780; settings: 72 h; for inhibition at 10 µM / inhibition at 30 µM: Homo sapiens, A2780, 72 h, read-out: Growth inhibition, % ± SEM
Description: as §1, §2

SiHa cells = experiment: MTT antiproliferative assay, SiHa; settings: 72 h; for inhibition at 10 µM / inhibition at 30 µM: Homo sapiens; for inhibition at 10 µM: read-out: Growth inhibition, % ± SEM, 10 μM; for inhibition at 30 µM: read-out: Growth inhibition, % ± SEM, 30 μM
Description: as §1, §2

UPCI-SCC-131 cells = experiment: MTT antiproliferative assay, UPCI-SCC-131; settings: 72 h, 72 h; for inhibition at 10 µM / inhibition at 30 µM: Homo sapiens, read-out: Growth inhibition, % ± SEM
Description: as §1, §2

HeLa cells = experiment: MTT antiproliferative assay, HeLa; settings: 72 h; for inhibition at 10 µM / inhibition at 30 µM: Homo sapiens; for inhibition at 10 µM: read-out: Growth inhibition, % ± SEM, 10 μM; for inhibition at 30 µM: read-out: Growth inhibition, % ± SEM, 30 μM
Description: as §1, §2

Row | Compound | inhibition at 10 µM (UPCI-SCC-154 cells; UPCI-SCC-154, 10 μM) | inhibition at 30 µM (UPCI-SCC-154 cells; UPCI-SCC-154, 30 μM) | inhibition at 10 µM (MDA-MB-231 cells) | inhibition at 30 µM (MDA-MB-231 cells) | inhibition at 10 µM (C33-A cells) | inhibition at 30 µM (C33-A cells) | inhibition at 10 µM (T47D cells) | inhibition at 30 µM (T47D cells) | inhibition at 10 µM (MCF-7 cells; MCF-7, 10 μM) | inhibition at 30 µM (MCF-7 cells; MCF-7, 30 μM) | inhibition at 10 µM (A2780 cells; A2780, 10 μM) | inhibition at 30 µM (A2780 cells; A2780, 30 μM) | inhibition at 10 µM (SiHa cells) | inhibition at 30 µM (SiHa cells) | inhibition at 10 µM (UPCI-SCC-131 cells; UPCI-SCC-131, 10 μM) | inhibition at 30 µM (UPCI-SCC-131 cells; UPCI-SCC-131, 30 μM) | inhibition at 10 µM (HeLa cells) | inhibition at 30 µM (HeLa cells) | Growth inhibition; % ± SEM (UPCI-SCC-154 cells; UPCI-SCC-154, 30 μM, 30 µM) | Growth inhibition; % ± SEM (MDA-MB-231 cells; MDA-MB-231, 10 μM) | other results
1 | Cc1ccc(P(=O)(C[C@H]2C[C@H]3[C@@H]4CCc5cc(OCc6ccccc6)ccc5[C@H]4CC[C@@]3(C)C2=O)c2ccc(C)cc2)cc1 [Compound 16, [(3-benzyloxy-17-oxo-13α-oestra-1,3,5(10)-trien-16β-yl)methyl]di-p-tolylphosphine oxide] | < 20% | 31.6 ± 2.41% | < 20% | < 20% | < 20% | 59.1 ± 0.69% | 23.6 ± 1.22% | 64.5 ± 1.6% | < 20% | < 20% | < 20% | 67.3 ± 3.04% | < 20% | < 20% | 49.5 ± 2.27% | 67.4 ± 1.11% | < 20% | 31.8 ± 2.27% | – | – | –
2 | CC12CCC3c4ccc(OCc5ccccc5)cc4CCC3C1CC(CP(=O)(c1ccc3ccccc3c1)c1ccc3ccccc3c1)C2=O (stereo not drawn) [Compound 20, [(3-benzyloxy-17-oxo-13α-oestra-1,3,5(10)-trien-16β-yl)methyl]di(naphtalen-2-yl)phosphine oxide] | – | – | – | – | – | – | – | – | – | – | – | – | – | – | – | – | – | – | 28.72 ± 1.11% | – (Inhibition values <20% are not presented.) | Growth inhibition; % ± SEM (UPCI-SCC-154 cells; UPCI-SCC-154, 10 μM, 10 µM): 30.97 ± 2.54%; Growth inhibition; % ± SEM (MDA-MB-231 cells; MDA-MB-231, 30 μM): – (Inhibition values <20% are not presented.); Growth inhibition; % ± SEM (C33-A cells; 10 μM): 27.94 ± 0.89%; Growth inhibition; % ± SEM (C33-A cells; 30 μM): 26.53 ± 1.06%; Growth inhibition; % ± SEM (T47D cells; 10 μM): 66.09 ± 0.76%; Growth inhibition; % ± SEM (T47D cells; 30 μM): 68.56 ± 1.81%; Growth inhibition; % ± SEM (MCF-7 cells; MCF-7, 10 μM, 10 µM): 28.24 ± 1.66%; Growth inhibition; % ± SEM (MCF-7 cells; MCF-7, 30 μM, 30 µM): 22.21 ± 2.78%; Growth inhibition; % ± SEM (A2780 cells; A2780, 10 μM): – (Inhibition values <20% are not presented.); Growth inhibition; % ± SEM (A2780 cells; A2780, 30 μM, 30 µM): – (Inhibition values <20% are not presented.); Growth inhibition; % ± SEM (SiHa cells; 10 μM): – (Inhibition values <20% are not presented.); Growth inhibition; % ± SEM (SiHa cells; 30 μM): – (Inhibition values <20% are not presented.); Growth inhibition; % ± SEM (UPCI-SCC-131 cells; UPCI-SCC-131, 10 μM, 10 µM): 48.25 ± 1.46%; Growth inhibition; % ± SEM (UPCI-SCC-131 cells; UPCI-SCC-131, 30 μM, 30 µM): 61.12 ± 1.32%; Growth inhibition; % ± SEM (HeLa cells; 10 μM): – (Inhibition values <20% are not presented.); Growth inhibition; % ± SEM (HeLa cells; 30 μM): – (Inhibition values <20% are not presented.)
3 | COc1ccc2c(c1)CCC1C2CCC2(C)C(=O)C(CP(=O)(c3ccc4ccccc4c3)c3ccc4ccccc4c3)CC12 (stereo not drawn) [Compound 18, [(3-methoxy-17-oxo-13α-oestra-1,3,5(10)-trien-16β-yl)methyl]di(naphtalen-2-yl)phosphine oxide] | – | – | – | – | – | – | – | – | – | – | – | – | – | – | – | – | – | – | – (Inhibition values <20% are not presented.) | – (Inhibition values <20% are not presented.) | Growth inhibition; % ± SEM (UPCI-SCC-154 cells; UPCI-SCC-154, 10 μM): – (Inhibition values <20% are not presented.); Growth inhibition; % ± SEM (MDA-MB-231 cells; MDA-MB-231, 30 μM): – (Inhibition values <20% are not presented.); Growth inhibition; % ± SEM (C33-A cells; 10 μM): – (Inhibition values <20% are not presented.); Growth inhibition; % ± SEM (C33-A cells; 30 μM): 20.25 ± 1.01%; Growth inhibition; % ± SEM (T47D cells; 10 μM): – (Inhibition values <20% are not presented.); Growth inhibition; % ± SEM (T47D cells; 30 μM): – (Inhibition values <20% are not presented.); Growth inhibition; % ± SEM (MCF-7 cells; MCF-7, 10 μM): – (Inhibition values <20% are not presented.); Growth inhibition; % ± SEM (MCF-7 cells; MCF-7, 30 μM): – (Inhibition values <20% are not presented.); Growth inhibition; % ± SEM (A2780 cells; A2780, 10 μM): – (Inhibition values <20% are not presented.); Growth inhibition; % ± SEM (A2780 cells; A2780, 30 μM): – (Inhibition values <20% are not presented.); Growth inhibition; % ± SEM (SiHa cells; 10 μM): – (Inhibition values <20% are not presented.); Growth inhibition; % ± SEM (SiHa cells; 30 μM): – (Inhibition values <20% are not presented.); Growth inhibition; % ± SEM (UPCI-SCC-131 cells; UPCI-SCC-131, 10 μM, 10 µM): 46.39 ± 1.19%; Growth inhibition; % ± SEM (UPCI-SCC-131 cells; UPCI-SCC-131, 30 μM, 30 µM): 64.55 ± 1.29%; Growth inhibition; % ± SEM (HeLa cells; 10 μM): – (Inhibition values <20% are not presented.); Growth inhibition; % ± SEM (HeLa cells; 30 μM): – (Inhibition values <20% are not presented.)
4 | Cc1ccc(P(=O)(C[C@@H]2C[C@H]3[C@@H]4CCc5cc(OCc6ccccc6)ccc5[C@H]4CC[C@@]3(C)C2=O)c2ccc(C)cc2)cc1 [Compound 15, [(3-benzyloxy-17-oxo-13α-oestra-1,3,5(10)-trien-16α-yl)methyl]di-p-tolylphosphine oxide] | < 20% | 34.7 ± 1.36% | < 20% | < 20% | < 20% | 26.9 ± 0.84% | 39.1 ± 2.01% | 58.5 ± 0.8% | < 20% | < 20% | < 20% | 49.4 ± 2.06% | < 20% | < 20% | 24.6 ± 1.39% | 60.2 ± 1.32% | < 20% | 27.4 ± 1.57% | – | – | –
5 | C[C@@]12CC[C@@H]3c4ccc(OCc5ccccc5)cc4CC[C@H]3[C@@H]1C[C@@H](CP(=O)(c1ccccc1)c1ccccc1)C2=O [Compound 11, [(3-benzyloxy-17-oxo-13α-oestra-1,3,5(10)-trien-16α-yl)methyl]diphenylphosphine oxide] | < 20% | 38.6 ± 2.6% | < 20% | < 20% | < 20% | 40.3 ± 0.95% | 24.7 ± 1.7% | 59 ± 1.38% | < 20% | 37.1 ± 0.72% | < 20% | 21.9 ± 2.63% | < 20% | 30.2 ± 2.99% | 20.9 ± 1.67% | 62.5 ± 1.4% | < 20% | 23.8 ± 2.11% | – | – | –
6 | COc1ccc2c(c1)CC[C@@H]1[C@@H]2CC[C@@]2(C)C(=O)[C@@H](CP(=O)(c3ccccc3)c3ccccc3)C[C@@H]12 [Compound 10, [(3-methoxy-17-oxo-13α-oestra-1,3,5(10)-trien-16β-yl)methyl]diphenylphosphine oxide] | < 20% | 24.3 ± 2.84% | < 20% | < 20% | 22 ± 1.84% | 27.2 ± 1.85% | < 20% | 61.1 ± 1.06% | < 20% | 35.9 ± 3.3% | < 20% | 64.2 ± 2.65% | < 20% | < 20% | 39.8 ± 1.36% | 72.9 ± 1.7% | < 20% | 21.5 ± 2.99% | – | – | –
